Results from ChEMBL document CHEMBL1157539, “Thousands of chemical starting points for antimalarial lead identification” (Nature, 2010).

Test system: Plasmodium falciparum
Assay: GSK_TCMDC: Inhibition of Plasmodium falciparum 3D7 in whole erythrocytes, using parasite LDH activity as an index of growth.
Assay type: functional, organism-based
Conditions: not given

| SMILES | XC50 |
| --- | --- |
| O=C(C=Cc1cccc(Cl)c1Cl)NC1CCC(CN2CCC(c3c[nH]c4ccccc34)CC2)CC1 (stereo not drawn) | 1140 nM |

Same assay, conditions: Plasmodium falciparum, 3D7

| SMILES | XC50 |
| --- | --- |
| CCOC(=O)c1[nH]c2cc(Cl)cc(Cl)c2c1/C=C/C(=O)Nc1ccc(-c2cnc(NC(C)=O)[nH]2)cc1 | 1020 nM |
| COc1cccc(-c2cc(C(=O)Nc3cc(Oc4ccc(O)cc4)cc([N+](=O)[O-])c3)on2)c1 | 1050 nM |
| Cc1cc(C(=O)Nc2ccc(-c3nc4ccccc4[nH]3)cc2)ccc1[N+](=O)[O-] | 671 nM |
| O=C(NCc1ccc(Cl)cc1)c1ccc(CN2CCCN(Cc3cccc(O)c3)CC2)cc1 | 1170 nM |
| CCN(CC)Cc1cc(NC(=O)c2ccccc2O)ccc1Oc1ccc(Cl)cc1 | 827 nM |
| Cc1c(C(=O)C2CC2CN2CCC(N3CCCCC3)CC2)sc2ccccc12 (stereo not drawn) | 1020 nM |
| Cc1nn(CC(C)C)c2sc(C(=O)N3CCN(S(=O)(=O)c4ccc(C#N)cc4)CC3)cc12 | 739 nM |
| O=S(=O)(c1cccc2cccnc12)N1CCN(C2CCCCC2)CC1 | 765 nM |
| Cc1cccn2c(=O)c3cc(C(=O)NC4CCCCC4)c(=N)n(CCCn4ccnc4)c3nc12 | 753 nM |
| O=C(Nc1ccc(Cl)cc1)Nc1ccc(-c2cccc(-c3nc4ccccc4[nH]3)c2)cc1 | 157 nM |
| Cc1ccc(CN2CCCN(Cc3ccc(C(=O)Nc4ccc(Cl)cc4)cc3)CC2)s1 | 1110 nM |
| CC(=O)N[C@H](C(=O)Nc1ccc(-c2ccc(-c3nc4cc(C(F)(F)F)ccc4[nH]3)s2)cc1)C(C)C | 1030 nM |
| CCCCCCC(C)(C)c1cc(O)c2c(c1)OC(C)(C)c1ccncc1-2 | 178 nM |
| O=C(/C=C/c1ccc2ccccc2c1)NCCCCCN1CCC(c2c[nH]c3ccccc23)CC1 | 1220 nM |
| CCOC(=O)c1c[nH]c2c(sc3cc(OC)ccc32)c1=O | 387 nM |
| Nc1ncc(-c2ccc3nccc(-c4ccncc4)c3c2)cc1S(=O)(=O)N1CCCCC1 | 581 nM |
| CC1=C(C(=O)Nc2cc3cn[nH]c3cc2F)C(c2cccc(O)c2F)CC(=O)N1 (stereo not drawn) | 629 nM |
| Cc1cccc2nc(-c3cccc(-c4ccc(NC(=O)C5CCN(C)CC5)cc4)c3)[nH]c12 | 829 nM |
| CCn1c(-c2nonc2N)nc2c(-c3ccccc3)ncc(OCCCCNCCc3ncc[nH]3)c21 | 852 nM |
| Cc1cc(N/N=C/c2cccc([N+](=O)[O-])c2)c2cc(F)ccc2n1 | 595 nM |
| Cn1cc(CN2CCCC(COC(c3ccccc3)c3ccccc3)C2)cn1 (stereo not drawn) | 775 nM |
| CNC(=O)c1cnc(Nc2ccc(N3CCN(C)CC3)c(C)c2)nc1NC | 869 nM |
| O=C(/C=C/c1ccc(Cl)c(Cl)c1)NCCCCCN1CCC(NC(=O)Nc2ccc(Cl)cc2F)CC1 | 313 nM |
| Cc1cccc2nc(-c3cccc(-c4ccc(NC(=O)Cc5ccccn5)cc4)c3)[nH]c12 | 793 nM |
| CCc1cn2c3c(cc(C(=O)N[C@@H](Cc4ccccc4)[C@H](O)CNC4CC4)cc13)N(CC)S(=O)(=O)CC2 | 112 nM |

| SMILES | XC50 |
| --- | --- |
| COc1ccc(NC(=O)[C@H](CC(C)C)Nc2cc(C)nc(NCC3CCCCC3)n2)cc1 | 1100 nM |
| Cc1ccc(Nc2ccnc(Nc3ccc(C)c(F)c3)n2)cc1O | 761 nM |
| COc1cc2nc(Nc3ccc(Oc4ccccc4)cc3)nc(Nc3ccc(Oc4ccccc4)cc3)c2cc1OC | 934 nM |
| O=C(Nc1ccc(Cl)c(Cl)c1)Nc1ccc2nccc(N3CCN(Cc4ccccc4)CC3)c2c1 | 158 nM |
| CC[C@H]1CN2CC[C@@H]1C[C@H]2[C@H](O)c1cc(-c2ccc(Cl)c(Cl)c2)nc2ccc(O)cc12 | 262 nM |
| Cc1nc(-c2ccc(-c3ccc(C(=O)Nc4ccc(I)c(OCC5CCCN5C)c4)cc3)c(C)c2)no1 (stereo not drawn) | 33 nM |
| Nc1nc(N)c2c(ccc3c2ccn3CC2CC2)n1 | 211 nM |
| COC(=O)c1ccc(CC(C)NCC(O)c2cc(Cl)c(N)c(Cl)c2)cc1 (stereo not drawn) | 877 nM |
| Fc1ccc2[nH]c(-c3cccc(-c4ccc(CNCC5CCCO5)cc4)c3)nc2c1 (stereo not drawn) | 541 nM |
| O=C(n1c(-c2cc3ccccc3n2C(=O)C(F)(F)F)cc2ccccc21)C(F)(F)F | 878 nM |
| CC[C@H](C)CNC(=O)c1cncc(-c2cccc(CNCCCc3ccccc3)c2)c1 | 1170 nM |
| O=C1C(c2ccccc2)=C(Nc2cc(Cl)cc(Cl)c2)c2ccccc21 | 372 nM |
| CC(C)(C)c1ccc(CN2CCC(CNC(=O)c3cc(-c4ccccc4Cl)cs3)C2)cc1 (stereo not drawn) | 856 nM |
| CCCCCC(C)C(C)c1cc(O)c2c(c1)OC(C)(C)CC2(O)c1ccnn1C (stereo not drawn) | 964 nM |
| COc1ccc2ncc(F)c(CCN3CCC(NCc4cnc5c(c4)NC(=O)CS5)CC3)c2c1 | 575 nM |
| CCc1ccc(NC(=O)c2ccc(CN3CCCN(CC4CCCCC4)CC3)cc2)cc1 | 711 nM |
| O=C(Nc1ccc(OC2CCN(Cc3ccccc3)C2)c(Cl)c1)c1ccc(F)cc1 (stereo not drawn) | 791 nM |
| O=C(Nc1ccc(OC2CCN(Cc3ccsc3)C2)c(Cl)c1)c1ccc(F)cc1 (stereo not drawn) | 943 nM |
| COc1ccc(CNCc2cccc(-c3ccc(-c4nc5cc(C(F)(F)F)ccc5[nH]4)cc3)c2)cc1 | 126 nM |
| FC(F)(F)c1ccc2[nH]c(-c3ccc(-c4cccc(CNCc5cnn(-c6ccccc6)n5)c4)cc3)nc2c1 | 652 nM |
| Cc1ccc(NC(=O)Nc2ccc(Cl)c(C(F)(F)F)c2)cc1-c1ccc(C(=O)Nc2ccncc2)cc1 | 264 nM |
| CN(C)CCOc1ccc(NC(=O)NC(C)(C)c2nc(-c3ccc(Cl)c(O)c3)c(-c3ccncc3)[nH]2)cc1 | 113 nM |
| Cc1nc(C)c(-c2ccc(Oc3ccc(OC(F)(F)F)cc3)cc2)c(OC(=O)N(CCNC(C)C)C(C)C)c1Br | 171 nM |
| COc1cccc(CNc2ncc(-c3ccsc3)c(-c3nccs3)n2)c1 | 422 nM |
| COc1ccc(-c2ccc(NC(=O)c3ccc(Cl)cc3)cc2)cc1CN1CCN(C)CC1 | 823 nM |

| SMILES | XC50 |
| --- | --- |
| Cc1noc(C)c1-c1cccc(CNCc2ccc(-c3cccc(-c4nc5cc(C(F)(F)F)ccc5[nH]4)c3)cc2)c1 | 556 nM |
| O=C(Nc1cccc(CN2CCCN(Cc3ccc4c(c3)OCO4)CC2)c1)c1ccc2ccccc2c1 | 1050 nM |
| CC(=O)Nc1ccc(CN2CCC(NC(=O)c3cc(-c4ccc(N(C)C)cc4)cs3)C2)cc1 (stereo not drawn) | 1170 nM |
| CCN(CC)CCCC(C)N=c1cc(C=Cc2ccccc2Cl)[nH]c2cc(Cl)ccc12 (stereo not drawn) | 805 nM |
| Nc1c2ccccc2nc2cc([N+](=O)[O-])ccc12 | 870 nM |
| COc1ccc2ncc(F)c(CCN3C4CCC3CC(NCc3cc5c(cn3)OCS5)C4)c2n1 (stereo not drawn) | 923 nM |
| Fc1ccc2[nH]ccc(=NN=Cc3ccccc3Cl)c2c1 | 922 nM |
| Cc1cccc2nc(-c3ccc(-c4cccc(CNCc5ccc(CN)cc5)c4)s3)[nH]c12 | 606 nM |
| CC(C)c1cc2c(ccc3nc(N)nc(N)c32)[nH]1 | 39 nM |
| COc1ccc(-c2cc3ncn(CC(=O)N4CCN(c5cccc(OC)c5)CC4)c(=O)c3s2)cc1 | 1060 nM |
| O=C(N[C@H]1CCN(Cc2ccc(OC3CCN(Cc4ccccc4)CC3)cc2)C1)c1ccc(Cl)c(Cl)c1 | 728 nM |
| CCN(CC)CCNc1nccc(N(C)c2ccc(NC(=O)Nc3cc(C(F)(F)F)ccc3F)cc2)n1 | 549 nM |
| CC(=O)N(C)c1cccc(C(=O)Nc2cccc(-c3cccc(-c4nc5cc(C(F)(F)F)ccc5[nH]4)c3)c2)c1 | 236 nM |
| CCOc1cc(C(=O)Nc2ccc3nc(N4CCCCC4)cc(C)c3c2)cc(OCC)c1OCC | 825 nM |
| Clc1nc2ccccn2c1C=Cc1ccc2ccccc2n1 | 267 nM |
| COc1ccc2nccc([C@@H](O)CN3CCC(NCc4ccc5c(c4)NC(=O)C(C)(C)O5)CC3)c2c1 | 402 nM |
| CCn1c(Sc2ccc([N+](=O)[O-])c(C#N)c2)nnc1-c1cccc(Cl)c1 | 873 nM |
| Cc1ccc2[nH]c3c(NCCCN(C)C)ncnc3c2c1 | 650 nM |
| C[C@H](Cc1ccc(OCCCOc2ccc(C[C@@H](C)NC[C@H](O)c3cccc(Cl)c3)cc2)cc1)NC[C@H](O)c1cccc(Cl)c1 | 780 nM |
| O=c1cc(NCCCNCc2cc3ccccc3s2)[nH]c2ccccc12 | 1270 nM |
| Cc1cc(-c2ccc3c(c2)CCN(CCC2CCC(NC(=O)/C=C/c4ccc(F)cc4)CC2)CC3)on1 (stereo not drawn) | 724 nM |
| CCN1CCC(N(Cc2ccc(-c3ccc(C(F)(F)F)cc3)cc2)C(=O)Cn2c(CCc3cccc(F)c3F)cc(=O)c3c2CCC3)CC1 | 972 nM |
| COCCN1CCC(NCC(C)(C)c2nc(-c3ccc(Cl)c(O)c3)c(-c3ccncc3)[nH]2)CC1 | 717 nM |
| Cc1ccc(CNC(=O)[C@H](Cc2ccccc2)Nc2ccnc(NCC3CCCCC3)n2)cc1 | 1190 nM |
| CN1CCN(Cc2cc(NC(=O)c3ccc(-c4ccc(Cl)cc4Cl)cc3)ccc2-c2ccccc2)CC1 | 973 nM |

| SMILES | XC50 |
| --- | --- |
| Cc1ccc(Nc2nc(-c3ccccn3)cs2)nc1 | 752 nM |
| COc1ccc2ccccc2c1C=NN=c1cc(C)[nH]c2c(C)cccc12 | 818 nM |
| Cc1ccc(S(=O)(=O)N(C)c2ccccc2C(=O)Nc2ccccc2Oc2ccccc2)cc1 | 919 nM |
| Cc1ccc(CNC(=O)c2cc3c(=O)n4cccc(C)c4nc3n(CCN3CCOCC3)c2=N)cc1 | 854 nM |
| CC1(C)CCC(C)(C)c2c1ccc(C1CCN(CCCCNC(=O)c3ccc(-c4ccc(Cl)cc4)cc3)CC1)c2O | 477 nM |
| N[C@@H](Cc1ccc(O)cc1)C(=O)NC(c1ccccc1)c1c(O)ccc2ccccc12 (stereo partly drawn) | 694 nM |
| COc1ccc2nccc([C@@H](O)CN3CCC(NCCOc4cccc(C(F)(F)F)c4)CC3)c2c1 | 159 nM |
| Cc1[nH]c(C)c(-c2ccc(-c3ccccc3Cl)nc2)c(=O)c1Br | 171 nM |
| O=C(C=Cc1cccc(Cl)c1Cl)NC1CCC(CN2CCC(c3c[nH]c4ccccc34)CC2)CC1 (stereo not drawn) | 680 nM |
| O=C(Nc1ccc(Cl)cc1)Nc1cccc(-c2ccc(-c3nc4ccccc4[nH]3)cc2)c1 | 928 nM |
| Cc1cc(N)c2cc(NC(=O)c3ccc4ccccc4c3)ccc2n1 | 254 nM |
| Clc1ccc(CNc2nc(NCCc3c[nH]cn3)nc(Nc3ccc4c(c3)OCO4)n2)cc1 | 955 nM |
| FC(F)(F)c1cccc(Nc2nc(-c3ccccc3)nc3ncccc23)c1 | 802 nM |
| Cc1cc(C(=O)Nc2ccc(OCc3ccccc3)cc2)on1 | 991 nM |
| OC(CNCCc1ccccc1)Cn1c2ccc(Cl)cc2c2cc(Cl)ccc21 (stereo not drawn) | 733 nM |
| O=S(=O)(NCCN1CCCC1)c1cccc(-c2cccc(CNCc3ccsc3)c2)c1 | 872 nM |
| CCc1nn2c(Nc3ccncc3)cc(C)nc2c1-c1ccccc1 | 203 nM |
| CCCCCCc1ncc(-c2cc3cc(O)c(-c4ccccc4)cc3oc2=O)s1 | 1240 nM |
| CCNC[C@@H](O)[C@H](Cc1ccccc1)NC(=O)c1cc2c3c(c1)c(CC)cn3CCS(=O)(=O)N2C | 810 nM |
| CCOc1ccc(Nc2nc(N)c3ccccc3n2)cc1 | 1150 nM |
| NC1CCN(Cc2cccc(-c3ccc(-c4nc5ccccc5[nH]4)s3)c2)C1 (stereo not drawn) | 727 nM |
| CCCC1(C)CSc2ccccc2C(c2ccccc2)N1 (stereo not drawn) | 707 nM |
